Measurements published in US4232150A, “Oligosaccharide precursors to substituted O-α-D and O-β-D-multigalactopyranosyl and glucopyranosyl 1→4 and 1→6 galactopyranosyl 1→6α-D-glucopyranoses” (American Cyanamid Company, priority 1979, dated 1980).
Counter-ions that a name gives are not always drawn.

How the values were obtained:
[1] = system: complement system; conditions: cited from earlier work
[2] = system: hereditary angioneurotic edema; conditions: in vivo; cited from earlier work
[3] = target: T1, activated human C1 (Homo sapiens, UniProt P09871); assay: Test Code 026 (C1 inhibitor); format: biochemical; conditions: serial twofold dilution assay; higher well number indicates higher activity
T1 construct: functional test of fluid-phase human C2 destruction in presence of C4
T1 sequence (P09871 16-688): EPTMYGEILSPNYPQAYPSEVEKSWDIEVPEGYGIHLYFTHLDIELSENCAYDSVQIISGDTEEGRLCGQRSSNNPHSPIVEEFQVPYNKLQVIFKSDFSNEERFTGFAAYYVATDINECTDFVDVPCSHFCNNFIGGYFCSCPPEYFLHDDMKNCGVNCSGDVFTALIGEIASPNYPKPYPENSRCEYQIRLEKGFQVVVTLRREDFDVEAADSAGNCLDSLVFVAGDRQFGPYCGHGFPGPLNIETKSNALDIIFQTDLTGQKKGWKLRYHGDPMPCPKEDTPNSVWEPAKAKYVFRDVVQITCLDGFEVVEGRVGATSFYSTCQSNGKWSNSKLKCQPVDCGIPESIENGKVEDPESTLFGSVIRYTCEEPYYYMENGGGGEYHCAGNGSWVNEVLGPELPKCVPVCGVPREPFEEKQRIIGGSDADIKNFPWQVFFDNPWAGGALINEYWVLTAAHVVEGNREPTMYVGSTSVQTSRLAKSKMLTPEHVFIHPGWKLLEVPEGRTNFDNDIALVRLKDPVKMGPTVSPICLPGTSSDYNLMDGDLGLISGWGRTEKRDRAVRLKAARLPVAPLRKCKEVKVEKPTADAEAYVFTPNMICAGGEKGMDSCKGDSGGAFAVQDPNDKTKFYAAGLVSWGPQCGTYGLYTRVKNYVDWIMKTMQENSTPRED
T1 sequence (P00736 18-705 partner): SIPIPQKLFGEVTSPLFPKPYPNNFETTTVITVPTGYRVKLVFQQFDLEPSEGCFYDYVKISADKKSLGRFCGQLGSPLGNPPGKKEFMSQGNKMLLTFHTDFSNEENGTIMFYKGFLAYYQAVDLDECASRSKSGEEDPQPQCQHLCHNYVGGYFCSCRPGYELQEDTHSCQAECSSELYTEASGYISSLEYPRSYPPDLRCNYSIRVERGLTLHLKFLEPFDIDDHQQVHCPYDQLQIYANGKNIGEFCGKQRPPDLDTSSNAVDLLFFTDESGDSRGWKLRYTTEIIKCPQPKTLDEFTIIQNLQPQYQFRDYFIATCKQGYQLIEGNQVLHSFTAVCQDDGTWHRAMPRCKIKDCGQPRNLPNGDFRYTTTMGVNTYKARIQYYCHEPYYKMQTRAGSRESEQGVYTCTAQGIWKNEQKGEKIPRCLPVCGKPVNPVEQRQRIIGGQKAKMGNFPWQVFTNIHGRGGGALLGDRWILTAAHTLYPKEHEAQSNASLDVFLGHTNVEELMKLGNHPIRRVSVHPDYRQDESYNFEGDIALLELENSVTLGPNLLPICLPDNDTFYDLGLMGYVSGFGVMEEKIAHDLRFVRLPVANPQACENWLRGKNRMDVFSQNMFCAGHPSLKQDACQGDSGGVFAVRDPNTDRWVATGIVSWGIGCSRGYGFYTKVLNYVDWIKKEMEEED
T1 sequence (P02745 23-245 partner): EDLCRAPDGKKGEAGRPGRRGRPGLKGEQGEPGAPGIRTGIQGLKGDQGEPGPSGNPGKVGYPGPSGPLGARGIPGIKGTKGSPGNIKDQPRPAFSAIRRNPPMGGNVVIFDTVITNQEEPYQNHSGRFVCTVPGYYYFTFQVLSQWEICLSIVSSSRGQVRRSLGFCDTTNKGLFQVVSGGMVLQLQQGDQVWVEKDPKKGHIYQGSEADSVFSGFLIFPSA
T1 sequence (P02746 28-253 partner): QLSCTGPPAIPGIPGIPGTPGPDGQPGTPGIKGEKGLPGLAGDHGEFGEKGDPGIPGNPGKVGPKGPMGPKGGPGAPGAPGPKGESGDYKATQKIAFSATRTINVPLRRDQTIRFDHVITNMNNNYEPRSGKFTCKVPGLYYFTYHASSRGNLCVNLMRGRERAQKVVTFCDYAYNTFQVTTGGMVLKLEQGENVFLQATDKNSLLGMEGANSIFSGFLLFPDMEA
T1 sequence (P02747 29-245 partner): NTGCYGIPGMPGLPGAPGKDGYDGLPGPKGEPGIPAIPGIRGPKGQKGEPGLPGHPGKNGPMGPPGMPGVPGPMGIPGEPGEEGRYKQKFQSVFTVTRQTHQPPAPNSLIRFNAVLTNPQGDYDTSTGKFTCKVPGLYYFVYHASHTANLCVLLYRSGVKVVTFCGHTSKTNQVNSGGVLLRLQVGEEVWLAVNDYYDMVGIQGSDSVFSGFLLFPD
Description: (§1) An active inhibitor protects C2 from C1 and C4; (ii) Test Cod3 035 (3-C9 inhibitor)--This test determines the ability of the late components of human complement (C3-C9) to lyse EAC 142 in the presence of appropriate dilutions of the test compound. An active inhibitor protects EAC 142 from lysis by human C3-C9; (iii) Test Code 036 (C-Shunt inhibitor)--In this test human erythrocytes rendered fragile are lysed in autologous serum via the shunt pathway activated by cobra venom factor in the presence of appropriate dilutions of the test compound. Inhibition of the shunt pathway results in failure of lysis; (iv) Forssman Vasculitis Test--Here, the well known complement dependent lesion, Forssman vasculitis, is produced in guinea pigs by intradermal injection of rabbit anti-Forssman antiserum. The lesion is measured in terms of diameter, edema and hemorrhage and the extent to which a combined index of these is inhibited by prior intraperitoneal injection of the test compound at 200 mg/kg is then reported, unless otherwise stated; (v) Forssman Shock Test--Lethal shock is produced in guinea pigs by an i.v. injection of anti-Forssman antiserum and the harmonic mean death time of treated guinea pigs is compared with that of simultaneous controls; (vi) Complement Level Reduction Test--In this test, the above dosed guinea pigs, or others, are bled for serum and the complement level is determined in undiluted serum by the capillary tube method of U.S. Pat. No. 3,876,376 and compared to undosed control guinea pigs; (vii) Cap 50 Test--Here, appropriate amounts of the test compound are added to a pool of guinea pig serum in vitro, after which the undiluted serum capillary tube assay referred to above is run. The concentration of compound inhibiting 50% is reported;
(§2) **Activity in wells, a serial dilution assay; higher well number indicate
(§3) higher activity. The serial dilutions are twofold

[4] = system: late components of human complement (C3-C9); assay: Test Code 035 (C3-C9 inhibitor; C-Late), lysis of EAC 142; format: cell-based; conditions: serial twofold dilution assay; higher well number indicates higher activity
Description: as §1, §2, §3

[5] = system: shunt pathway activated by cobra venom factor; assay: Test Code 036 (C-Shunt inhibitor), lysis of human erythrocytes by cobra venom factor; format: cell-based; conditions: serial twofold dilution assay; higher well number indicates higher activity
Description: as §1, §2, §3

[6] = system: human serum complement; conditions: in vitro and in vivo; cited from earlier work

Compound | anticomplementary effect [1] | success in the treatment of hereditary angioneurotic edema [2] | also measured
Nc1ccc2cc(S(=O)(=O)[O-])cc(O)c2c1N=Nc1ccc(NC(=O)Nc2ccc(N=Nc3c(N)ccc4cc(S(=O)(=O)[O-])cc(O)c34)c(S(=O)(=O)[O-])c2)cc1S(=O)(=O)[O-].[Na+].[Na+].[Na+].[Na+] [chlorazol fast pink, 3,3'-ureylenebis[6-(2-amino-8-hydroxy-6-sulfo-1-naphthylazo)benzenesulfonic acid], tetrasodium salt] | anticomplementary effect |  | 
NCCCCCC(=O)O [epsilon-aminocaproic acid] |  | used with success in the treatment of hereditary angioneurotic edema | 
O=S(=O)(O)OC[C@H]1O[C@H](OC[C@H]2O[C@@H](OC[C@H]3O[C@H](OC[C@H]4O[C@H](OS(=O)(=O)O)[C@H](OS(=O)(=O)O)[C@@H](OS(=O)(=O)O)[C@@H]4OS(=O)(=O)O)[C@H](OS(=O)(=O)O)[C@@H](OS(=O)(=O)O)[C@H]3OS(=O)(=O)O)[C@H](OS(=O)(=O)O)[C@@H](OS(=O)(=O)O)[C@@H]2OS(=O)(=O)O)[C@H](OS(=O)(=O)O)[C@@H](OS(=O)(=O)O)[C@H]1OS(=O)(=O)O [gal →1α,6 glc → 1β,6 gal →1α,6 glc tetradecakis (H-sulfate),] [Gal 1α,6 glc 1β,6 gal 1α,6 glc tetradecakis (H-sulfate), tetradecasodium salt] |  |  | C1 026* Wells [3]: +9 Wells; C-Late 035* Wells [4]: +1 Wells; Shunt Inhibition 036* Wells [5]: +6 Wells
NC[C@H]1CC[C@H](C(=O)O)CC1 [tranexamic acid] |  | used with success in the treatment of hereditary angioneurotic edema | 
heparin | anticomplementary effect |  | 
pentosan-polysulfoester |  |  | anticomplementary activity on human serum, as judged by the reduction in total hemolytic complement activity [6]: anticomplementary activity on human serum, both in vitro and in vivo
